Biological target: T1, Human pyruvate kinase R (PKR) (Homo sapiens, UniProt P30613)
T1 construct: Human pyruvate kinase R (PKR), residues 14-574; 6x-His (N, cleaved yes); 8x-Arg (N, cleaved yes); SUMO (N, cleaved yes); host or cells: E. coli
Assay: Biochemical assay for activation of pyruvate kinase R (Kinase-Glo luminescence, ATP generation)
Conditions: for AC50: 0.1 nM PKR, 2 mM FBP, 0.3 mM ADP, 0.1 mM PEP; for PKR % activation: maximal activation level relative to the activation level achieved by AG-348 @ 10 μM
Experimental: Proteins were translated as fusions with 6×-His, 8×-Arg, and SUMO at the N-terminus. […] All proteins were cloned, expressed in E. coli, and purified using similar protocols. Cells were grown at 30° C. in Luria-Bertani broth supplemented with 0.4% glucose to OD600=0.8 and induced with 0.4 mM IPTG at 16° C. for 18 hours. Cells were harvested by centrifugation, resuspended in 50 mM potassium phosphate pH 8.0, 500 mM NaCl, 25 mM imidazole pH 8.0, and 3 mM β-mercaptoethanol. Cells were lysed using a LM20 microfluidizer from Microfluidics (Westwood, Mass.). The crude lysate was immediately supplemented with 0.2 mM phenylmethylsulfonyl fluoride (PMSF) and centrifuged at 20,000 g for 20 minutes. The soluble fraction was subsequently incubated with 2 mL Ni-NTA (GE Healthcare) per 1,000 ODs for 1 hour at 4° C. Following incubation with the Ni-NTA resin, lysate was removed by pelleting resin at 2,500 g for 3 minutes and washed 3 times with 9 bed volumes of 50 mM potassium phosphate pH 8.0, 500 mM NaCl, 25 mM imidazole, and 3 mM β-mercaptoethanol. Following the batch wash Ni-NTA resin was loaded onto a gravity column and His-tagged protein was eluted with 6 bed volumes of 10 mM Tris/HCl pH 8.0, 200 mM NaCl, 500 mM imidazole, and 3 mM β-mercaptoethanol. Eluted protein was dialyzed overnight against 10 mM Tris/HCl pH 8.0, 200 mM NaCl, and 1 mM DTT and the 6×-His-8×-Arg-SUMO-tag was cleaved using a 20:1 molar ratio of protein:3C protease. The protein was purified by anion exchange chromatography on a HiTrapQ or MonoQ 10/100 GL column (GE Healthcare) via a linear NaCl gradient and twice by size exclusion chromatography using a Superdex S200 26/60 column (GE Healthcare) run in 10 mM Tris/HCl pH 8.0, 200 mM NaCl, 10 mM MgCl2, 1 mM DTT. Proteins were concentrated to ˜12 mg/mL for crystallization and flash frozen for storage.
Biochemical Assay for Activation of Pyruvate Kinase R
Activation of pyruvate kinase R (PKR) and pyruvate kinase M2 (PKM2) were measured using a luminescence based measurement of ATP generation and the Kinase-Glo luminescent kinase reagent kit.

T1 sequence (P30613 14-574): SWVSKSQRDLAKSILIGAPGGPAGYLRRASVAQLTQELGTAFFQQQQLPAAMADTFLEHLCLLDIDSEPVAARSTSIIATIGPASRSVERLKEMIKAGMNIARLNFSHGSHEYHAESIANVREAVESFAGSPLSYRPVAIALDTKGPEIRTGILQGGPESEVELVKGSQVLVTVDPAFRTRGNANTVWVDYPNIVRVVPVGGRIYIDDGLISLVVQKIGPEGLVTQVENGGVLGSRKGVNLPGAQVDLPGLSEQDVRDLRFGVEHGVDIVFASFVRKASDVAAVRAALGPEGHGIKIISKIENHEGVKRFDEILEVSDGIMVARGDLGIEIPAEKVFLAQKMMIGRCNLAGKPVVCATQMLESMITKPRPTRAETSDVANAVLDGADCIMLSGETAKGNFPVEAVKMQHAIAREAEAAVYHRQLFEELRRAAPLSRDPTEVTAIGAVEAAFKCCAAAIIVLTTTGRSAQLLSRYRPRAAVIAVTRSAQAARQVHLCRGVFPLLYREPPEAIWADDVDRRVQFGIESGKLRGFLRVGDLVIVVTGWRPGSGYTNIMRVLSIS

Row | Structure (SMILES) | AC50 [nM] | PKR % activation [%]
1 | N[C@@H](C(=O)N1Cc2cn(S(=O)(=O)c3ccc(OC(F)F)cc3)nc2C1)c1ccccc1F [Compound 56, (2R)-2-amino-1-{2-[4-(difluoromethoxy)benzenesulfonyl]-2H,4H,5H,6H-pyrrolo[3,4-c]pyrazol-5-yl}-2-(2-fluorophenyl)ethan-1-one] | 30 | 
2 | N[C@@H](C(=O)N1Cc2cn(S(=O)(=O)c3ccc(OC(F)F)cc3)nc2C1)c1ccc(Cl)cc1 [Compound 51, (2R)-2-amino-2-(4-chlorophenyl)-1-{2-[4-(difluoromethoxy)benzenesulfonyl]-2H,4H,5H,6H-pyrrolo[3,4-c]pyrazol-5-yl}ethan-1-one] | 23 | 
3 | O=C([C@H](CO)c1ccccc1)N1Cc2cn(S(=O)(=O)c3ccc(OC4CC4)nc3)nc2C1 [Compound 97, (2S)-1-{2-[(6-cyclopropoxypyridin-3-yl)sulfonyl]-2H,4H,5H,6H-pyrrolo[3,4-c]pyrazol-5-yl}-3-hydroxy-2-phenylpropan-1-one] | > 10000 | 
4 | O=C([C@H](CO)c1ccccc1)N1Cc2cn(S(=O)(=O)c3ccc4c(cnn4C(F)F)c3)nc2C1 [Compound 91, (2S)-1-(2-{[1-(difluoromethyl)-1H-indazol-5-yl]sulfonyl}-2H,4H,5H,6H-pyrrolo[3,4-c]pyrazol-5-yl)-3-hydroxy-2-phenylpropan-1-one] | 14 | 
5 | O=CN[C@H](C(=O)N1Cc2cn(S(=O)(=O)c3ccc(OC(F)F)cc3)nc2C1)c1ccccc1 [Compound 73, N-[(1S)-2-{2-[4-(difluoromethoxy)benzenesulfonyl]-2H,4H,5H,6H-pyrrolo[3,4-c]pyrazol-5-yl}-2-oxo-1-phenylethyl]formamide] | 13 | 
6 | O=C([C@H](CO)c1ccccc1F)N1Cc2cn(S(=O)(=O)c3ccc(OC(F)F)nc3)nc2C1 [Compound 85, (2S)-1-(2-[6-(difluoromethoxy)pyridin-3-yl]sulfonyl-2H,4H,5H,6H-pyrrolo[3,4-c]pyrazol-5-yl)-2-(2-fluorophenyl)-3-hydroxypropan-1-one] | 6.8 | 
7 | O=C(N1Cc2cn(S(=O)(=O)c3ccc4c(c3)NCCO4)nc2C1)[C@]1(c2ccccn2)CCOC1 (single isomer, unassigned) [Compound 46, 6-({5-[(3S)-3-(pyridin-2-yl)oxolane-3-carbonyl]-2H,4H,5H,6H-pyrrolo[3,4-c]pyrazol-2-yl}sulfonyl)-3,4-dihydro-2H-1,4-benzoxazine or 6-({5-[(3R)-3-(pyridin-2-yl)oxolane-3-carbonyl]-2H,4H,5H,6H-pyrrolo[3,4-c]pyrazol-2-yl}sulfonyl)-3,4-dihydro-2H-1,4-benzoxazine] | 129 | 45
8 | N[C@@H](C(=O)N1Cc2cn(S(=O)(=O)c3ccc4c(c3)NCCO4)nc2C1)c1ccccc1F [Compound 57, (2R)-2-amino-1-[2-(3,4-dihydro-2H-1,4-benzoxazine-6-sulfonyl)-2H,4H,5H,6H-pyrrolo[3,4-c]pyrazol-5-yl]-2-(2-fluorophenyl)ethan-1-one] | 17 | 
9 | C[C@@](CO)(C(=O)N1Cc2cn(S(=O)(=O)c3ccc4c(c3)OCCO4)nc2C1)c1ccccn1 (single isomer, unassigned) [Compound 48, (2R)-1-[2-(2,3-dihydro-1,4-benzodioxine-6-sulfonyl)-2H,4H,5H,6H-pyrrolo[3,4-c]pyrazol-5-yl]-3-hydroxy-2-methyl-2-(pyridin-2-yl)propan-1-one or (2S)-1-[2-(2,3-dihydro-1,4-benzodioxine-6-sulfonyl)-2H,4H,5H,6H-pyrrolo[3,4-c]pyrazol-5-yl]-3-hydroxy-2-methyl-2-(pyridin-2-yl)propan-1-one] | 223 | 46
10 | O=C([C@H](CO)c1ccccc1)N1Cc2cn(S(=O)(=O)c3cnc4c(c3)OCCO4)nc2C1 [Compound 76, (2S)-1-(2-{2H,3H-[1,4]dioxino[2,3-b]pyridine-7-sulfonyl}-2H,4H,5H,6H-pyrrolo[3,4-c]pyrazol-5-yl)-3-hydroxy-2-phenylpropan-1-one] | 6.9 | 
11 | C[C@@H](O)[C@H](C(=O)N1Cc2cn(S(=O)(=O)c3ccc(OC(F)F)cc3)nc2C1)c1ccccc1 [Compound 11] | 7270 | 164
12 | COc1ccc(S(=O)(=O)n2cc3c(n2)CN(C(=O)[C@H](CO)c2ccccc2F)C3)cc1 [Compound 88, (2S)-2-(2-fluorophenyl)-3-hydroxy-1-[2-(4-methoxybenzenesulfonyl)-2H,4H,5H,6H-pyrrolo[3,4-c]pyrazol-5-yl]propan-1-one] | 3 | 

Further lines, results first:

Row | AC50 [nM] | PKR % activation [%] | Structure (SMILES)
13 | 83 |  | O=C(N1Cc2cn(S(=O)(=O)c3ccc4ncsc4c3)nc2C1)C1(c2ccccc2)CCOC1 (stereo not shown) [Compound 18, 6-{[5-(3-phenyloxolane-3-carbonyl)-2H,4H,5H,6H-pyrrolo[3,4-c]pyrazol-2-yl]sulfonyl}-1,3-benzothiazole]
14 | 75 |  | CC(CO)(C(=O)N1Cc2cn(S(=O)(=O)c3ccc4ncsc4c3)nc2C1)c1ccccn1 (single isomer, unassigned) [Compound 43, (2R)-1-[2-(1,3-benzothiazole-6-sulfonyl)-2H,4H,5H,6H-pyrrolo[3,4-c]pyrazol-5-yl]-3-hydroxy-2-methyl-2-(pyridin-2-yl)propan-1-one or (2S)-1-[2-(1,3-benzothiazole-6-sulfonyl)-2H,4H,5H,6H-pyrrolo[3,4-c]pyrazol-5-yl]-3-hydroxy-2-methyl-2-(pyridin-2-yl)propan-1-one]
15 | 4.9 |  | O=C([C@H](CO)c1ccccc1F)N1Cc2cn(S(=O)(=O)c3ccc4ncsc4c3)nc2C1 [Compound 79, (2S)-1-[2-(1,3-benzothiazole-6-sulfonyl)-2H,4H,5H,6H-pyrrolo[3,4-c]pyrazol-5-yl]-2-(2-fluorophenyl)-3-hydroxypropan-1-one]
16 | 4.5 |  | O=C([C@H](CO)c1ccccc1F)N1Cc2cn(S(=O)(=O)c3ccc4occc4c3)nc2C1 [Compound 84, (2S)-1-[2-(1-benzofuran-5-sulfonyl)-2H,4H,5H,6H-pyrrolo[3,4-c]pyrazol-5-yl]-2-(2-fluorophenyl)-3-hydroxypropan-1-one]
17 | 6.2 |  | O=C([C@H](O)c1ccccc1Cl)N1Cc2cn(S(=O)(=O)c3ccc4ncsc4c3)nc2C1 [Compound 65, (2R)-1-[2-(1,3-benzothiazole-6-sulfonyl)-2H,4H,5H,6H-pyrrolo [3,4-c]pyrazol-5-yl]-2-(2-chlorophenyl)-2-hydroxyethan-1-one]
18 | 556 | 127 | O=C([C@H](CO)c1ccccc1)N1Cc2cn(S(=O)(=O)c3ccc4ncsc4c3)nc2C1 (single isomer, unassigned) [Compound 2, (2S)-1-[2-(1,3-benzothiazole-6-sulfonyl)-2H,4H,5H,6H-pyrrolo[3,4-c]pyrazol-5-yl]-3-hydroxy-2-phenylpropan-1-one or (2R)-1-[2-(1,3-benzothiazole-6-sulfonyl)-2H,4H,5H,6H-pyrrolo[3,4-c]pyrazol-5-yl]-3-hydroxy-2-phenylpropan-1-one]
19 | 36 |  | N[C@@H](C(=O)N1Cc2cn(S(=O)(=O)c3ccc4ncsc4c3)nc2C1)c1cccc(Cl)c1 [Compound 53, (2R)-2-amino-1-[2-(1,3-benzothiazole-6-sulfonyl)-2H,4H,5H,6H-pyrrolo[3,4-c]pyrazol-5-yl]-2-(3-chlorophenyl)ethan-1-one]
20 | 550 | 86 | C[C@@](CO)(C(=O)N1Cc2cn(S(=O)(=O)c3ccc4ncsc4c3)nc2C1)c1ccccn1 (single isomer, unassigned) [Compound 44, (2R)-1-[2-(1,3-benzothiazole-6-sulfonyl)-2H,4H,5H,6H-pyrrolo[3,4-c]pyrazol-5-yl]-3-hydroxy-2-methyl-2-(pyridin-2-yl)propan-1-one or (2S)-1-[2-(1,3-benzothiazole-6-sulfonyl)-2H,4H,5H,6H-pyrrolo[3,4-c]pyrazol-5-yl]-3-hydroxy-2-methyl-2-(pyridin-2-yl)propan-1-one]
21 | 4.7 |  | CC(O)C(C(=O)N1Cc2cn(S(=O)(=O)c3ccc4ncsc4c3)nc2C1)c1ccccc1Cl (single isomer, unassigned) [Compound 69]
22 | 3.8 |  | O=CN[C@@H](C(=O)N1Cc2cn(S(=O)(=O)c3ccc4ncsc4c3)nc2C1)c1ccccc1Cl [Compound 81, N-[(1R)-2-[2-(1,3-benzothiazole-6-sulfonyl)-2H,4H,5H,6H-pyrrolo[3,4-c]pyrazol-5-yl]-1-(2-chlorophenyl)-2-oxoethyl]formamide]
23 | 77 |  | C[C@](N)(C(=O)N1Cc2cn(S(=O)(=O)c3ccc4ncsc4c3)nc2C1)c1ccccc1 [Compound 60, (2R)-2-amino-1-[2-(1,3-benzothiazole-6-sulfonyl)-2H,4H,5H,6H-pyrrolo[3,4-c]pyrazol-5-yl]-2-phenylpropan-1-one]
